The values that follow come from ChEMBL document CHEMBL6153031, “Impact of the hydrophilic-lipophilic balance of free-base and Zn(II) tricationic pyridiniumporphyrins and irradiation wavelength in PDT against the melanoma cell lines” (Eur J Med Chem, 2025).

A value given as a limit tells only on which side of the number the result lay.

Data set [1] can be described thus: Phototoxicity against human MeWo cells assessed as reduction in cell viability incubated for 6 hrs followed by irradiation for 30 mins with light at wavelength of 606 nm and measured after 36 to 48 hrs by MTT assay. It is filed as functional, cell-based. The note with it: light or radiation study.
A short description of data set [2]: Phototoxicity against human MeWo cells assessed as cell proliferation rate at 1 uM incubated for 6 hrs followed by irradiation for 30 mins with light at wavelength of 643 nm and measured after 36 to 48 hrs by MTT assay. The data set is classed as functional. The note with it: light or radiation study, time 2550-3270 min, read-out: Activity.
Data set [3] can be described thus: Cytotoxicity against human HDF cells assessed as cell proliferation rate at 1 uM incubated for 6 hrs followed by irradiation for 30 mins with light at wavelength of 643 nm and measured after 36 to 48 hrs by MTT assay. The data set is classed as toxicity, cell-based. The note with it: time 2550-3270 min, read-out: Activity.
Data set [4] in a line: Phototoxicity against human A-375 cells assessed as reduction in cell viability incubated for 6 hrs followed by irradiation for 30 mins with light at wavelength of 606 nm and measured after 36 to 48 hrs by MTT assay. It is filed as functional, cell-based. Conditions: A-375, light or radiation study; call rule not given here.
The nature of data set [5]: Drug uptake in nucleus in human MeWo cells at 5 uM incubated for 6 hrs by DIOC6(3) dye based fluorescence microscopy. It is filed as ADME, cell-based.
Data set [6] in a line: Cytotoxicity against human MeWo cells assessed as reduction in cell viability measured after 36 to 48 hrs by MTT assay. The data set is classed as toxicity, cell-based. Background: Tetrazolium dyes change colour on reduction, which living cells bring about.
A short description of data set [7]: Drug uptake in cytoplasmic organelles in human HDF cells at 5 uM incubated for 6 hrs by DIOC6(3) dye based fluorescence microscopy. It is filed as ADME, cell-based.
Data set [8] in a line: Drug uptake in human MeWo cells at 1 uM measured at 37 degC after 6 hrs by fluorescence based analysis. It is filed as ADME, cell-based.
The nature of data set [9]: Drug uptake in human HDF cells at 1 uM measured at 37 degC after 6 hrs by fluorescence based analysis. It is filed as ADME, cell-based.
The nature of data set [10]: Cytotoxicity against human HDF cells assessed as reduction in cell viability incubated for 6 hrs followed by irradiation for 30 mins with light at wavelength of 606 nm and measured after 36 to 48 hrs by MTT assay. The data set is classed as toxicity, cell-based.
A short description of data set [11]: Drug uptake in cytoplasmic organelles in human MeWo cells at 5 uM incubated for 6 hrs by DIOC6(3) dye based fluorescence microscopy. It is filed as ADME, cell-based.
Data set [12] in a line: Phototoxicity against human A-375 cells assessed as reduction in cell viability incubated for 6 hrs followed by irradiation for 30 mins with light at wavelength of 643 nm and measured after 36 to 48 hrs by MTT assay. It is filed as functional, cell-based. The note with it: A-375, light or radiation study.
Data set [13] in a line: Cytotoxicity against human HDF cells assessed as cell proliferation rate at 1 uM incubated for 6 hrs followed by irradiation for 30 mins with light at wavelength of 606 nm and measured after 36 to 48 hrs by MTT assay. It is filed as toxicity, cell-based. The note with it: time 2550-3270 min, read-out: Activity.
The nature of data set [14]: Phototoxicity against human MeWo cells assessed as reduction in cell viability incubated for 6 hrs followed by irradiation for 30 mins with light at wavelength of 643 nm and measured after 36 to 48 hrs by MTT assay. The note with it: light or radiation study. It is filed as functional, cell-based.
Data set [15] in a line: Phototoxicity against human A-375 cells assessed as reduction in cell proliferation at 1 uM incubated for 6 hrs followed by irradiation for 30 mins with light at wavelength of 606 nm and measured after 36 to 48 hrs by MTT assay. It is filed as functional. Conditions: A-375, light or radiation study, time 2550-3270 min.
Data set [16] in a line: Selectivity index, ratio of IC50 for cytotoxicity against human HDF cells incubated for 6 hrs followed by irradiation for 30 mins with light at wavelength of 606 nm and measured after 36 to 48 hrs to IC50 for phototoxicity against human MeWo cells incubated for 6 hrs followed by irradiation for 30 mins with light at wavelength of 606 nm and measured after 36 to 48 hrs. It is filed as toxicity, cell-based. Conditions: HDF cells versus MeWo cells, read-out: Ratio IC50.

Data set [17] can be described thus: Selectivity index, ratio of IC50 for cytotoxicity against human HDF cells incubated for 6 hrs followed by irradiation for 30 mins with light at wavelength of 606 nm and measured after 36 to 48 hrs to IC50 for phototoxicity against human A-375 cells incubated for 6 hrs followed by irradiation for 30 mins with light at wavelength of 606 nm and measured after 36 to 48 hrs. The data set is classed as toxicity, cell-based. The note with it: HDF cells versus A-375 cells, read-out: Ratio IC50.

The nature of data set [18]: Phototoxicity against human MeWo cells assessed as cell proliferation rate at 1 uM incubated for 6 hrs followed by irradiation for 30 mins with light at wavelength of 606 nm and measured after 36 to 48 hrs by MTT assay. The note with it: light or radiation study, time 2550-3270 min, read-out: Activity. The data set is classed as functional.
A short description of data set [19]: Cytotoxicity against human A-375 cells assessed as reduction in cell viability measured after 36 to 48 hrs by MTT assay. The data set is classed as toxicity, cell-based.
A short description of data set [20]: Drug uptake in nucleus in human HDF cells at 5 uM incubated for 6 hrs by DIOC6(3) dye based fluorescence microscopy. The data set is classed as ADME, cell-based.
A short description of data set [21]: Cytotoxicity against human HDF cells assessed as reduction in cell viability measured after 36 to 48 hrs by MTT assay. The data set is classed as toxicity, cell-based.
A short description of data set [22]: Cytotoxicity against human HDF cells assessed as reduction in cell proliferation at 1 uM incubated for 6 hrs followed by irradiation for 30 mins with light at wavelength of 606 nm and measured after 36 to 48 hrs by MTT assay. It is filed as toxicity, cell-based. Conditions: time 2550-3270 min.
Data set [23] is described as follows: Phototoxicity against human MeWo cells assessed as reduction in cell proliferation at 1 uM incubated for 6 hrs followed by irradiation for 30 mins with light at wavelength of 606 nm and measured after 36 to 48 hrs by MTT assay. The note with it: light or radiation study, time 2550-3270 min. It is filed as functional.
A short description of data set [24]: Cytotoxicity against human HDF cells assessed as reduction in cell viability incubated for 6 hrs followed by irradiation for 30 mins with light at wavelength of 643 nm and measured after 36 to 48 hrs by MTT assay. The data set is classed as toxicity, cell-based.

What is called IC50 is the concentration that inhibits the measured activity by half. Usually inhibition stands for the relative decrease from the control value, in per cent. For `CCCCCCCCCCCCCC(=O)Nc1ccc(-c2c3nc(c(-c4ccc[n+](C)c4)c4ccc([nH]4)c(-c4ccc[n+](C)c4)c4nc(c(-c5ccc[n+](C)c5)c5ccc2[nH]5)C=C4)C=C3)cc1.[Cl-].[Cl-].[Cl-]`, the IC50 in data set [1] is 1440 nM; in data set [4], 310 nM; in data set [6] it was more than 100000 nM; in data set [10] it was 4600 nM; in [12], 90 nM; in data set [14] it was 660 nM. Further, the IC50 is more than 100000 nM in data set [19], more than 100000 nM in data set [21] and 780 nM in data set [24]. The growth at 1 µM in data set [2] came to 40%; in data set [18], 60%. Besides, the results for the viability at 1 µM in data set [3] and in data set [13] were approximately 30% and more than 80%, respectively. The Drug uptake result in [5] is reported as “Not_active”; in data set [7], “Active”; in data set [8] it was “Active”; in [9] it was “Active”; in data set [11], “Active”; in [20], “Not_active”. The figures for the inhibition at 1 µM in data set [15], in [22] and in data set [23] were 90%, 10% and 50%, respectively. The selectivity ratio in data set [16] was found to be 3.2; in data set [17], 14.8.
